ChEMBL document CHEMBL3414567, “Novel hybrid DHPM-fatty acids: synthesis and activity against glioma cell growth in vitro” (Eur J Med Chem, 2015)
Calls of active or inactive are those of the source. No cut-off for these calls is given here.

How the values were obtained:
[1] = tested on: C6; test: Cytotoxicity against rat C6 cells assessed as reduction of cell viability at 25 uM after 24 hrs by MTT assay; type: functional, cell-based
[2] = tested on: C6; test: Cytotoxicity against rat C6 cells assessed as reduction of cell viability at 50 uM after 24 hrs by MTT assay; type: functional, cell-based
[3] = Cytotoxicity against human U138MG cells assessed as reduction of cell viability at 50 uM after 24 hrs by MTT assay relative to control; type: functional, U138-MG
[4] = Cytotoxicity against Wistar rat organotypic hippocampal slice cultures assessed as neural cell death at 200 uM after 24 hrs by propidium iodide staining-based fluorescence image analysis; set-up: species or system Hippocampus
[5] = tested on: C6; test: Cytotoxicity against rat C6 cells assessed as growth inhibition at 150 uM relative to control; type: functional; conditions: read-out: GI
[6] = Cytotoxicity against human U138MG cells assessed as growth inhibition at 150 uM relative to control; type: functional; conditions: U138-MG, read-out: GI
[7] = tested on: C6; test: Cytotoxicity against rat C6 cells assessed as reduction of cell viability after 24 hrs by MTT assay; type: functional, cell-based
[8] = tested on: U138-MG; test: Cytotoxicity against human U138MG cells assessed as reduction of cell viability after 24 hrs by MTT assay; type: functional, cell-based
[9] = Cytotoxicity against human U138MG cells assessed as reduction of cell viability at 10 uM after 24 hrs by MTT assay relative to control; type: functional, U138-MG

Structure (SMILES)	Activity [2]	Activity [3]	Activity [4]	also measured
CCCCCCCC/C=C\CCCCCCCCOC(=O)C1=C(C)NC(=O)NC1c1cccc(O)c1 (stereo unspecified)	Active	70%	Non-toxic	Activity [1]: Active
CCOC(=O)C1=C(C)NC(=S)NC1c1cccc(O)c1 (stereo unspecified) [MONASTROL]				inhibition of growth at 150 µM [5]: 30%; inhibition of growth at 150 µM [6]: 30%
CCCCCCCC/C=C\CCCCCCCCOC(=O)C1=C(C)NC(=O)NC1c1ccccc1 (stereo unspecified)			Non-toxic	Activity [7]: Dose-dependent effect; Activity [8]: Dose-dependent effect
CCCCCCCCCCCCCCCCOC(=O)C1=C(C)NC(=S)NC1c1cccc(O)c1 (stereo unspecified)	Active	70%	Non-toxic	Activity [1]: Active
CCCCCCCC/C=C\CCCCCCCCOC(=O)C1=C(C)NC(=S)NC1c1cccc(O)c1 (stereo unspecified)	Active	70%	Non-toxic	
CCCCCCCCCCCCCCCCOC(=O)C1=C(C)NC(=O)NC1c1cccc(O)c1 (stereo unspecified)	Active	70%	Non-toxic	Activity [9]: 50%
CCCCCCCCCCCCCCCCCCOC(=O)C1=C(C)NC(=S)NC1c1cccc(O)c1 (stereo unspecified)	inactive			
